Results on 13 molecules are retold here after patent US9416115B2, “Fused heterocyclic compounds as ion channel modulators” (Gilead Sciences, Inc., priority 2013, dated 2016).

SMILES strings stand for the structures.

One data set deals with T1, hNav1.3 (SCN3A) (Homo sapiens, UniProt Q9NY46).
T1 construct: expressed in transfected cells
As to the kind of experiment: Voltage-dependent inhibition of the Nav1.3 sodium channel. It is filed as cell-based. The note with it: voltage-dependent block of peak current, read-out: Nav 1.3-VDB 1 uM. The procedure:
HEK-293 cells stably expressing wild-type (WT) hNav1.3 (SCN3A NCBI # NP 001075, SCN1B NCBI # NM 001037.4, SCN2B NCBI # NM 004588.2) were used to record INa. Cells are maintained with standard tissue culture procedures and stable channel expression is maintained with 800 ug/mL G418 and 3 ug/mL Puromycin in the culture medium. Unless otherwise noted, all reagents are purchased from Sigma-Aldrich (St Louis, Mo., U.S.A.).
Assays measuring Voltage-Dependent Block (VDB) of Nav1.3 are performed on an automated electrophysiology platform, QPatch 16X or QPatch HT (Sophion Bioscience, Copenhagen, Denmark), using the whole cell patch clamp technique to measure currents through the cell membrane. Series resistance compensation is set to 100% and series resistance and whole-cell compensation are performed automatically. Currents stored in the Sophion Bioscience Oracle database (Sophion Bioscience, Copenhagen, Denmark). Analysis is performed using QPatch Assay software and data are compiled in Excel 2010 (Microsoft, Seattle, Wash., U.S.A.).
The internal (pipette) solution consists of (in mM) 105 CsF, 10 NaF, 20 CsCl, 2 EGTA, 10 HEPES, 10 Dextrose with a pH of 7.35 and osmolarity of 300 mOsmol/kg. The external (bath) solution contains in (mM): 80 NaCl, 60 Choline-Cl, 4 KCl, 1.8 CaCl2, 1 MgCl2, 10 dextrose, 10 HEPES, with a pH of 7.35 and osmolarity of 310 mOsmol/kg. Experiments are carried out at 23-25° C.
Compound stocks are routinely made by the Gilead Sample Bank in vials to 10 mM in dimethyl sulfoxide (DMSO). In some cases, when compounds are not soluble in DMSO, they are made in 100% ethanol. Stocks are sonicated as necessary. Compounds are diluted in extracellular solution using a MicroLab Nimbus (Hamilton Robotics, Reno, Nev.) to 1 μM in glass vials and transferred to glass well plates before robotic addition to the cells.
Cells are allowed to stabilize for 10 min after establishment of the whole-cell configuration before current is measured. The test compound is applied 3 times at 120 second intervals to allow for equilibration. Currents were leak subtracted using a P/4 procedure, low-pass Bessel filtered at 5 kHz and digitized at 25 kHz. Results are presented as mean percentage inhibition.
Voltage-dependent block of Nav1.3 peak current was measured during a voltage step to 0 mV (20 ms) following a voltage step pre-conditioning steps (−55 mV for 10 sec followed by −120 mV for 10 ms). The holding potential was −120 mV and this voltage protocol induces half maximal inactivation of Nav1.3. The voltage protocol for VDB was performed every 45 seconds in the absence and presence of compound and percentage inhibition was calculated with respect to the compound free condition.

A short description of data set [1]: Plasma concentration in the rabbit ischemia study. It is filed as in vivo, New Zealand rabbits. The settings on record: iv infusion targeted to 1 uM plasma. On the procedure: (§1) Rabbits were anesthetized with ketamine (35 mg/kg) and xylazine (5 mg/kg) intramuscular injection (im). A tracheotomy was performed and the trachea was intubated with an endotracheal tube. The animal was ventilated with room air supplemented with oxygen using a pressure control animal ventilator (Kent Scientific Corp., Torrington, Conn.) at a respiratory rate of 40 strokes/min and peak inspiration pressure of 10 mmH2O, which was adjusted to keep blood gases and pH within the physiological range (iSTAT clinic analyzer, Heska Corp.; Waukesha, Wis.). The left femoral artery was cannulated for the measurement of blood pressure (BP). Blood samples were also withdrawn from femoral artery. The right external jugular vein was cannulated for drug/vehicle administration. Needle electrodes were inserted subcutaneously into the limbs for recording of the surface electrocardiogram (ECG).
(§2) Reference electrodes were placed in the open incision of the neck. The body temperature of the animal was monitored via a rectal thermometer and maintained at 37-40° C. by adjusting the surface temperature of the surgical table. Regional ischemia (15 min) was induced by ligating the LAD followed by 15 min of reperfusion caused by releasing the ligation. The heart was excised at the end of the experiment and the LAD was re-ligated. The ischemic area was visualized by perfusing the heart with 1% Evans blue in saline and calculated as a percentage of total ventricular weight. Rabbits with ischemic area less than 10% or larger than 25% were excluded from the analysis. Animals were randomly assigned to vehicle and test compound groups. Test compounds were dissolved in 15% NMP, 10% Solutol and 75% de-ionized water (dH2O). Test compounds were given as an iv infusion at a rate targeted to reach plasma concentrations of 1 μM. After 30 min of compound administration the heart was subjected to 15 min of ischemia followed by 15 min of reperfusion.

For data set [2], the system named is Ischemia-Induced ST Segment Elevation in Anesthetized Rabbits. As to the kind of experiment: Ischemia-induced ST segment elevation in anesthetized rabbits. The format is in vivo, New Zealand rabbits. The note with it: iv infusion; 15 min LAD ischemia after 30 min of compound administration. The procedure: This study was undertaken to determine the anti-ischemic effects of compounds of the present disclosure in an in vivo rabbit model.
Female New Zealand rabbits (3.0-4.0 kg) were purchased from Western Oregon Rabbitry. Animals were housed on a 12-h light and dark cycle and received standard laboratory chow and water. All experiments were performed in accordance with the Guide for the Care and Use of Laboratory Animals published by The National Research Council and with the experimental protocol approved by the Institutional Animal Care Committee of Gilead Sciences, Inc.
as §1
The heart was exposed via an incision in the 4th intercostal space (4th and/or 5th ribs were cut for a clear surgical vision). The chest was opened and a pericardial cradle was formed using 4 retractors. A coronary artery occluder, comprised of a snare made of 5 cm PE-10 tubing with a 6-0 Prolene polypropylene suture in it, was placed loosely around the left anterior descending artery (LAD) at its origin. Two unipolar electrodes, made with teflon coated silver wire attached to a small patch of filter paper, were attached on the surface of the ischemic and normal regions of the left ventricle to record epicardial electrocardiogram.
as §2

T1 sequence (Q9NY46 1-1951 isoform Q9NY46-2): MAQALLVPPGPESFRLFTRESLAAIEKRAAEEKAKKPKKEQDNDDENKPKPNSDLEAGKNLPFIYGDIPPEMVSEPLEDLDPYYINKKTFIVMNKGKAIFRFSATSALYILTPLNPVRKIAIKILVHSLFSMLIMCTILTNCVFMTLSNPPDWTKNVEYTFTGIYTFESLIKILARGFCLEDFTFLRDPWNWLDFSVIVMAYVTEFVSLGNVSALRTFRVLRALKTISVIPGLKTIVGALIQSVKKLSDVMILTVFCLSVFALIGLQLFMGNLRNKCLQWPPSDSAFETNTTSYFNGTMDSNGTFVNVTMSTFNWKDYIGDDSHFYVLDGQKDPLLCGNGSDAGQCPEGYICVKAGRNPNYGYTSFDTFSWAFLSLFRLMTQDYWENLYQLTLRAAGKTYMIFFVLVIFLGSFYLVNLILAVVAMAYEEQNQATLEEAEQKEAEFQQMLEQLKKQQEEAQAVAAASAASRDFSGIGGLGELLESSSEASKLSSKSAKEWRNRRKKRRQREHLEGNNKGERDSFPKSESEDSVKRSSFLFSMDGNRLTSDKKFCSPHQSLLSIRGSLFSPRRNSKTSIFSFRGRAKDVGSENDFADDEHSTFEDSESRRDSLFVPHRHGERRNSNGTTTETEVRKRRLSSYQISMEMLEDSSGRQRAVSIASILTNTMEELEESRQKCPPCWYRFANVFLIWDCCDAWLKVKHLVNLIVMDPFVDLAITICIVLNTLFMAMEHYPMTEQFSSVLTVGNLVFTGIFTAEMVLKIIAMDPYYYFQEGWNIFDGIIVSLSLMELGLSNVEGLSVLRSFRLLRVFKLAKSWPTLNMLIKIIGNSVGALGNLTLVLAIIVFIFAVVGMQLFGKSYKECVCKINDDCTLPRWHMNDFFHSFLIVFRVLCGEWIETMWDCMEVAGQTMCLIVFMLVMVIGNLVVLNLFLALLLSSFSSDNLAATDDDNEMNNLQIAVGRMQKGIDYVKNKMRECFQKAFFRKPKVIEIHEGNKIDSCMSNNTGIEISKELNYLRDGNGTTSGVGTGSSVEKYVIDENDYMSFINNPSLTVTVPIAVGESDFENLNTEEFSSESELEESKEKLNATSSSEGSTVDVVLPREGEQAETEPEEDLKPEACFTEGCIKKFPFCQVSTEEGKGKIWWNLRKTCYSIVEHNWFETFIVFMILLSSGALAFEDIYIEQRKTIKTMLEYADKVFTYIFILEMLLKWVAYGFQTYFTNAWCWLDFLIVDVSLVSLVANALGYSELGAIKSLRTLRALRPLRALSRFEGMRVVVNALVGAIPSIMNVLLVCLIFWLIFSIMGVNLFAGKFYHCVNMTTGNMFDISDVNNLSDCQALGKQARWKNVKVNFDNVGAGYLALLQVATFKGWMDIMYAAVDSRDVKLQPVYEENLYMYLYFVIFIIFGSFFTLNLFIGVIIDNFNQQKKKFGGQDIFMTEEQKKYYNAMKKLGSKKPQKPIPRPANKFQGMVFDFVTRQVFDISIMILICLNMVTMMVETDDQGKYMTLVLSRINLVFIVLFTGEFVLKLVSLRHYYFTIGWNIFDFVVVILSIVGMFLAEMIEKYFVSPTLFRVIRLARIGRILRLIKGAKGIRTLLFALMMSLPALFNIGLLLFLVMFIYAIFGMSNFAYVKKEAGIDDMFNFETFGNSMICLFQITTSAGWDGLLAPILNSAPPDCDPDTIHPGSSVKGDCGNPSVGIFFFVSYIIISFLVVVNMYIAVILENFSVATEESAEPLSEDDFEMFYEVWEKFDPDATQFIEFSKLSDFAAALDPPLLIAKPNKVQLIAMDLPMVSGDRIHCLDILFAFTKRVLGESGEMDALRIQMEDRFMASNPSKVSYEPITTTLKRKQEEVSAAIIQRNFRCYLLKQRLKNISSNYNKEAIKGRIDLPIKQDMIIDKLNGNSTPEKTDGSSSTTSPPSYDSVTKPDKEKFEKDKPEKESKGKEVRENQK
T1 sequence (Q07699 19-218 partner): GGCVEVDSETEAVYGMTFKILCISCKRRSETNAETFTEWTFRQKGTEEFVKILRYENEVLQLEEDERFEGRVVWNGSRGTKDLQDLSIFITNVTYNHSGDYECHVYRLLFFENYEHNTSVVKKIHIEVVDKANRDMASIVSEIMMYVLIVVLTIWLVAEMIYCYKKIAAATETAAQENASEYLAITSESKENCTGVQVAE
T1 sequence (O60939 30-215 partner): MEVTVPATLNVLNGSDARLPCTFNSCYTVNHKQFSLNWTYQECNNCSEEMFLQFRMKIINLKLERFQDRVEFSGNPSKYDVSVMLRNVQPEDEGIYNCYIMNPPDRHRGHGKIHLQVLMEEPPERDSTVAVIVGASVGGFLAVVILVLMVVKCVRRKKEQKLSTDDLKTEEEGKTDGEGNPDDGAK

Turning to `FC(F)(F)Oc1cccc(-c2ccc3onc(OCc4ncccn4)c3c2)c1` [Example 10, 3-(pyrimidin-2-ylmethoxy)-5-(3-(trifluoromethoxy)phenyl)benzo[d]isoxazole], the inhibition at 1 µM at hNav1.3 (SCN3A) is 8.5%. Regarding `COc1cc(OC(F)(F)F)ccc1-c1ccc2onc(OCc3ncccn3)c2c1` [Example 4, 5-(2-methoxy-4-(trifluoromethoxy)phenyl)-3-(pyrimidin-2-ylmethoxy)benzo[d]isoxazole], the inhibition at 1 µM on hNav1.3 (SCN3A) came to 12.2%. As to `Cc1nnc(COc2noc3ccc(-c4ccc(OC(F)(F)F)cc4)cc23)o1` [Example 99, 3-((5-methyl-1,3,4-oxadiazol-2-yl)methoxy)-5-(4-(trifluoromethoxy)phenyl)benzo[d]isoxazole], at hNav1.3 (SCN3A), the inhibition at 1 µM is 41.4%. Consider `COc1cc(-c2ccc(OC(F)(F)F)cc2)cc2c(OCc3ncccn3)noc12` [Example 22, 7-methoxy-3-(pyrimidin-2-ylmethoxy)-5-(4-(trifluoromethoxy)phenyl)benzo[d]isoxazole], for which, at hNav1.3 (SCN3A), the inhibition at 1 µM worked out at 17.3%.

For `Fc1cc(-c2ccc3onc(OCc4ncccn4)c3c2)ccc1Cl` [Example 8, 5-(4-chloro-3-fluorophenyl)-3-(pyrimidin-2-ylmethoxy)benzo[d]isoxazole], on hNav1.3 (SCN3A), the inhibition at 1 µM amounted to 6.4%. With `FC(F)(F)Oc1ccc(-c2ccc3onc(OCc4nnc(C5CC5)o4)c3c2)cc1` [Example 96, 3-((5-cyclopropyl-1,3,4-oxadiazol-2-yl)methoxy)-5-(4-(trifluoromethoxy)phenyl)benzo[d]isoxazole], in data set [1], the Plasma concentration worked out at 1 µM. Further, the “Rabbit ST Segment (Percent reduction)” value in data set [2] turned out to be 46 Percent reduction. In the case of `CC(COc1noc2ccc(-c3ccc(OC(F)(F)F)cc3)cc12)n1cccn1` (stereo not shown) [Example 68, 3-(2-(1H-pyrazol-1-yl)propoxy)-5-(4-(trifluoromethoxy)phenyl)benzo[d]isoxazole], the inhibition at 1 µM on hNav1.3 (SCN3A) was determined as 27.1%. In data set [1], `Fc1cc(C(F)(F)F)ccc1-c1ccc2onc(OCc3ncccn3)c2c1` [Example 6, 5-(2-fluoro-4-(trifluoromethyl)phenyl)-3-(pyrimidin-2-ylmethoxy)benzo[d]isoxazole] yielded a Plasma concentration of 0.8 µM. The inhibition at 1 µM at hNav1.3 (SCN3A) was less than 5%. Further, the “Rabbit ST Segment (Percent reduction)” value in data set [2] is listed as 0 Percent reduction. On the same counts, the results for `O=C1CCCN1CCOc1noc2ccc(-c3ccc(OC(F)(F)F)cc3)cc12` [Example 59, 1-(2-((5-(4-(trifluoromethoxy)phenyl)benzo[d]isoxazol-3-yl)oxy)ethyl)pyrrolidin-2-one] are 1.3 µM, 14.5% and 23 Percent reduction.

On to `FC(F)(F)Oc1ccc(-c2ccc3onc(OCc4ncccn4)c3c2)cc1` [Example 1, 3-(pyrimidin-2-ylmethoxy)-5-(4-(trifluoromethoxy)phenyl)benzo[d]isoxazole], for which, in data set [1], the Plasma concentration was determined as 1 µM. In addition, the “Rabbit ST Segment (Percent reduction)” value in data set [2] amounted to 32 Percent reduction. With `FC(F)(F)Oc1ccc(-c2ccc3onc(OCCn4cncn4)c3c2)cc1` [Example 58, 3-(2-(1H-1,2,4-triazol-1-yl)ethoxy)-5-(4-(trifluoromethoxy)phenyl)benzo[d]isoxazole], in data set [1], the Plasma concentration is 1.3 µM. Also, the “Rabbit ST Segment (Percent reduction)” value in data set [2] is given as 14 Percent reduction.

In data set [1], `Cc1ccnc(COc2noc3ccc(-c4ccc(OC(F)(F)F)cc4)cc23)n1` [Example 5, 3-((4-methylpyrimidin-2-yl)methoxy)-5-(4-(trifluoromethoxy)phenyl)benzo[d]isoxazole] showed a Plasma concentration of 1.4 µM. Besides, the inhibition at 1 µM on hNav1.3 (SCN3A) is 13.9%. Moreover, the “Rabbit ST Segment (Percent reduction)” value in data set [2] was 0 Percent reduction. `Cc1cc(-c2ccc3onc(OCc4ncccn4)c3c2)ccc1OC(F)(F)F` [Example 7, 5-(3-methyl-4-(trifluoromethoxy)phenyl)-3-(pyrimidin-2-ylmethoxy)benzo[d]isoxazole]: the inhibition at 1 µM at hNav1.3 (SCN3A) is less than 5%.
